In ChEMBL document CHEMBL5244219, “Recent developments of quinolone-based derivatives and their activities against Escherichia coli” (Eur J Med Chem, 2018):
Values after ≈ are worked out from the molar mass of the structure shown.

Key:
Type in all cases: functional
Escherichia coli [1] = experiment: Antibacterial activity against Escherichia coli assessed as bacterial growth inhibition incubated for 16 to 24 hrs by absorbance analysis; conditions: time 16-24 hrs
Escherichia coli [2] = experiment: Antibacterial activity against Escherichia coli NIHJ JC-2 assessed as bacterial growth inhibition measured after 24 hrs by agar dilution method
Escherichia coli [3] = experiment: Antibacterial activity against Escherichia coli NIHJ assessed as bacterial growth inhibition measured after 24 hrs by agar dilution method
Escherichia coli [4] = experiment: Antibacterial activity against Escherichia coli 2010-05 assessed as bacterial growth inhibition measured after 24 hrs by agar dilution method
Escherichia coli [5] = experiment: Antibacterial activity against Escherichia coli 2010-29 assessed as bacterial growth inhibition measured after 24 hrs by agar dilution method
Escherichia coli [6] = experiment: Antibacterial activity against Escherichia coli assessed as bacterial growth inhibition incubated for 18 to 20 hrs by agar dilution method; conditions: time 18-20 hrs
Escherichia coli [7] = experiment: Antibacterial activity against Escherichia coli MTCC 739 assessed as bacterial growth inhibition incubated for 24 hrs by spectrophotometric method
Escherichia coli [8] = experiment: Antibacterial activity against Escherichia coli assessed as bacterial growth inhibition by microdilution method
Escherichia coli [9] = experiment: Antibacterial activity against Escherichia coli assessed as zone of inhibition at 500 to 1000 ug per disc; conditions: dose 500-1000 µg
Escherichia coli [10] = experiment: Antibacterial activity against Escherichia coli assessed as bacterial growth inhibition measured after 24 hrs by broth micro dilution method
Escherichia coli [11] = experiment: Antibacterial activity against Escherichia coli NCTC 10418 assessed as bacterial growth inhibition incubated for 18 to 20 hrs by agar dilution method; conditions: time 18-20 hrs
Escherichia coli [12] = experiment: Antibacterial activity against Escherichia coli ATCC 8739 assessed as bacterial growth inhibition incubated for 24 hrs by two-serial dilution method

In the case of `Cc1[nH]c2ccc(Br)cc2c(=O)c1CC(=O)O`, the MIC (Escherichia coli [1]) is reported as 8.97 µg/mL (≈ 30.3 µM).

With `CNC1CN(c2c(F)cc3c(=O)c(C(=O)O)cn(-c4cc(N)c(F)cc4CO)c3c2Cl)C1` the MIC (Escherichia coli [2]) was 0.008 µg/mL (≈ 0.0172 µM), the MIC (Escherichia coli [3]) was 0.008 µg/mL (≈ 0.0172 µM) and the MIC (Escherichia coli [4]) was 2 µg/mL (≈ 4.3 µM). The MIC (Escherichia coli [5]) was 2 µg/mL (≈ 4.3 µM).

`CCn1cc(C(=O)O)c(=O)c2cc(F)c(N3CCNC(C)C3)c(F)c21` (stereo unspecified) [LOMEFLOXACIN] showed an MIC (Escherichia coli [6]) of 0.02 µg/mL (≈ 0.0569 µM).

In the case of `Cn1c(=O)cc(OCc2nn(CN3CCN(c4ccccc4F)CC3)c(=S)o2)c2ccccc21`, the MIC (Escherichia coli [7]) is reported as 25 µg/mL (≈ 51.9 µM).

For `CC(=O)NC[C@H]1CN(c2ccc(N[C@@H]3CCN(c4cc5c(cc4F)c(=O)c(C(=O)O)cn5C4CC4)C3)c(F)c2)C(=O)O1`, the MIC (Escherichia coli [8]) was ≥ 0.5 µg/mL.

`Cn1c(=O)cc(OCc2nn(CN3CCN(c4cccc(C(F)(F)F)c4)CC3)c(=S)o2)c2ccccc21` was tested, and the MIC (Escherichia coli [7]) was 25 µg/mL (≈ 47 µM).

`O=c1[nH]c2ccc(Cl)cc2c2c1cnn2Cc1ccccc1` was tested, and the “diameter of the inhibition zone (DIZ)” value (Escherichia coli [9]) was 7 mm.

`CCn1cc(C(=O)O)c(=O)c2cc(F)c(-n3cc(CO[C@H]4O[C@H](COC(C)=O)[C@@H](OC(C)=O)[C@H](OC(C)=O)[C@@H]4OC(C)=O)nn3)c(F)c21` was tested, and the MIC (Escherichia coli [10]) was > 6.25 µg/mL.

Molecule `Cn1c(=O)cc(OCc2nn(CN3CCN(c4ccc(F)cc4)CC3)c(=S)o2)c2ccccc21` has an MIC (Escherichia coli [7]) of 25 µg/mL (≈ 51.9 µM).

In the case of `CCn1cc(C(=O)O)c(=O)c2cc(F)c(-n3cc(CO[C@H]4O[C@H](COC(C)=O)[C@H](OC(C)=O)[C@H](OC(C)=O)[C@H]4OC(C)=O)nn3)c(F)c21`, the MIC (Escherichia coli [10]) is reported as > 6.25 µg/mL.

With `CCn1cc(C(=O)O)c(=O)c2cc(F)c(N3CCN(CN4C(=O)/C(=N/NC(N)=S)c5cc(Br)ccc54)CC3)cc21` the MIC (Escherichia coli [11]) was ≤ 0.018 µg/mL.

With `CCn1cc(C(=O)O)c(=O)c2cc(F)c(-n3cc(CO[C@H]4O[C@H](COC(C)=O)[C@@H](OC(C)=O)[C@H](OC(C)=O)[C@H]4NC(C)=O)nn3)c(F)c21` the MIC (Escherichia coli [10]) was > 6.25 µg/mL.

For `CCn1cc(C(=O)O)c(=O)c2cc(F)c(N3CCN(CN4C(=O)C(=O)c5cc(Br)ccc54)CC3)cc21`, the MIC (Escherichia coli [11]) was ≤ 0.018 µg/mL.

`Cc1[nH]c2ccccc2c(=O)c1CC(=O)O` was tested, and the MIC (Escherichia coli [1]) was 8.97 µg/mL (≈ 41.3 µM).

`Cn1c(=O)cc(OCc2nn(CN3CCN(c4ccc(F)cc4)CC3)c(=S)s2)c2ccccc21` was tested, and the MIC (Escherichia coli [7]) was 25 µg/mL (≈ 50.2 µM).

In the case of `CCn1cc(C(=O)O)c(=O)c2cc(F)c(-n3cc(CO[C@H]4OC[C@@H](OC(C)=O)[C@@H](OC(C)=O)[C@H]4OC(C)=O)nn3)c(F)c21`, the MIC (Escherichia coli [10]) is reported as > 6.25 µg/mL.

Work on `Cc1ccc2[nH]c(C)c(CC(=O)O)c(=O)c2c1` yielded an MIC (Escherichia coli [1]) of 8.97 µg/mL (≈ 38.8 µM).

In the case of `CC(=O)NC[C@H]1CN(c2ccc(N3CCN(c4cc5c(cc4F)c(=O)c(C(=O)O)cn5C4CC4)CC3)c(F)c2)C(=O)O1`, the MIC (Escherichia coli [8]) is reported as ≥ 0.5 µg/mL.

With `CCn1cc(C(=O)O)c(=O)c2cc(F)c(-n3cc(CO[C@H]4OC[C@@H](OC(C)=O)[C@H](OC(C)=O)[C@H]4OC(C)=O)nn3)c(F)c21` the MIC (Escherichia coli [10]) was > 6.25 µg/mL.

In the case of `CCn1cc(C(=O)O)c(=O)c2cc(F)c(N3CCN(CN4C(=O)C(=O)c5cc(Cl)ccc54)CC3)cc21`, the MIC (Escherichia coli [11]) is reported as ≤ 0.018 µg/mL.

With `O=C(O)c1cn(C2CC2)c2c(cc(F)c3nc(-c4ccco4)[nH]c32)c1=O` the MIC (Escherichia coli [12]) was > 3 µg/mL.

In the case of `Cc1ccc2[nH]c(=O)c3cnn(Cc4ccccc4)c3c2c1`, the “diameter of the inhibition zone (DIZ)” value (Escherichia coli [9]) is reported as 7 mm.

For `CCn1cc(C(=O)O)c(=O)c2cc(F)c(-n3cc(CO[C@H]4OC[C@@H](OC(C)=O)[C@@H](OC(C)=O)[C@@H]4OC(C)=O)nn3)c(F)c21`, the MIC (Escherichia coli [10]) was > 6.25 µg/mL.

With `COc1ccc(N2CCN(Cn3nc(COc4cc(=O)n(C)c5ccccc45)sc3=S)CC2)cc1` the MIC (Escherichia coli [7]) was 25 µg/mL (≈ 49.1 µM).

With `CCn1cc(C(=O)O)c(=O)c2cc(F)c(N3CCN(CN4C(=O)/C(=N/NC(N)=S)c5ccccc54)CC3)cc21` the MIC (Escherichia coli [11]) was ≤ 0.018 µg/mL.

In the case of `CCn1c(=O)c(C(=O)/C=C/c2cccs2)c(O)c2ccccc21`, the “diameter of the inhibition zone (DIZ)” value (Escherichia coli [9]) is reported as 7 mm.

Work on `COc1cc(Cc2cnc(/N=C3\C(=O)N(CN4CCN(c5cc6c(cc5F)c(=O)c(C(=O)O)cn6C5CC5)CC4)c4ccccc43)nc2N)cc(OC)c1OC` yielded an MIC (Escherichia coli [6]) of 0.0095 µg/mL (≈ 0.0125 µM).

In the case of `CC(=O)NC[C@H]1CN(c2ccc(N[C@@H]3CCN(c4nc5c(cc4F)c(=O)c(C(=O)O)cn5C4CC4)C3)c(F)c2)C(=O)O1`, the MIC (Escherichia coli [8]) is reported as ≥ 0.5 µg/mL.

`CNC1(C)CN(c2c(F)cc3c(=O)c(C(=O)O)cn(-c4cc(N)c(F)cc4CO)c3c2Cl)C1` was tested, and the MIC (Escherichia coli [2]) was 0.008 µg/mL (≈ 0.0167 µM), the MIC (Escherichia coli [3]) was 0.008 µg/mL (≈ 0.0167 µM) and the MIC (Escherichia coli [4]) was 1 µg/mL (≈ 2.09 µM). For the same molecule, the MIC (Escherichia coli [5]) was 1 µg/mL (≈ 2.09 µM).

`Cn1c(=O)c(C(=O)/C=C/c2ccco2)c(O)c2ccccc21` was tested, and the “diameter of the inhibition zone (DIZ)” value (Escherichia coli [9]) was 7 mm.

`O=C(O)c1cn(C2CC2)c2c(cc(F)c3nc(-c4ccccc4)[nH]c32)c1=O` was tested, and the MIC (Escherichia coli [12]) was > 3 µg/mL.

With `O=C(O)c1cn(C2CC2)c2c(cc(F)c3nc(-c4ccccn4)[nH]c32)c1=O` the MIC (Escherichia coli [12]) was > 3 µg/mL.

For `CCn1cc(C(=O)O)c(=O)c2cc(F)c(-n3cc(CO[C@H]4O[C@H](COC(C)=O)[C@@H](OC(C)=O)[C@H](OC(C)=O)[C@H]4OC(C)=O)nn3)c(F)c21`, the MIC (Escherichia coli [10]) was > 6.25 µg/mL.

Work on `Cc1[nH]c2cc3ccccc3cc2c(=O)c1CC(=O)O` yielded an MIC (Escherichia coli [1]) of 8.97 µg/mL (≈ 33.6 µM).

In the case of `CCn1c(=O)c(C(=O)/C=C/c2ccsc2)c(O)c2ccccc21`, the “diameter of the inhibition zone (DIZ)” value (Escherichia coli [9]) is reported as 7 mm.
